Experimental findings from patent US9062051B2, “Compounds and pharmaceutical compositions thereof for the treatment of proliferative disorders” (GALAPAGOS NV, priority 2014, dated 2015) are described below.

SMILES strings stand for the structures. Entries after “also recorded” stand apart in the source; their conditions may differ.

Series [1] in a line: Plasma exposure at day 7 in the MDA-MB-231 xenograft experiment. Type of series: in vivo, Female BALB/c Mice. The settings on record: for AUC: female, BALB/c, mouse, plasma, po. Here is the method: 5 million MDA-MB-231 cells/mice in 0.1 mL of 50% Matrigel (BD biosciences, LDEV free 256235)+50% D-PBS 1× (Gibco 14190-086) are injected by subcutaneous route on the upper back of 120 mice. Prior to implantation, mice are anesthetized by intra-peritoneal injection with a 0.1 mL/10 g dose of anaesthetic solution (18 mL NaCl, 0.9%+0.5 mL xylazine, +1.5 mL ketamine. After implantation, tumours are regularly measured with a calliper, and mice with a mean tumour volume of about 200 mm^3 are randomized into groups of 10 individuals, and each group is dosed either with vehicle (p.o.), paclitaxel as control (3×/week, 20 mg/kg i.p.), or a test compound at doses of 3, 10, 30 or 100 mg/kg (p.o., QD, in 10 mL/kg administration volume)
Even at a 10 fold higher dosing (300 mg/kg, p.o.), Comparative Compound A remains 3.9 fold less exposed than Compound 55.

A further series has as its system MDA-MB-231 cells. The series is described as follows: Mouse xenograft model of human triple negative breast cancer (MDA-MB-231), tumorous growth inhibition. Type of series: in vivo, Female BALB/c Mice. The settings on record: for RTV (Relative Tumor Volume) / T/C (Tumour Vs Control) / TGI (Tumor Growth Inhibition): p.o., qd. Here is the method: Animals (Female BALB/c Mice, Harlan, 51930, 18-20 g) are provided with filtered tap water and standard chow ad libitum and maintained at 22±2° C. in 55±10% humidity on a 12 h light/dark cycle.
Paclitaxel used as a positive control is formulated by 1/3 dilution of commercial solution (Fresenius kabi, 871WF014/4) in saline.
The test compounds for po administration are formulated in 0.5% methylcellulose (VWR, ref AX021233).
MDA-MB-231 cell line is obtained from the ATCC collection (ref HTB-26). The cells are then cultured in RPMI 1640 medium supplemented with […] (Gibco 15140-148) and 1% (v/v) L-Glutamine 200 mM (Gibco 25030-024) at 37° C. in a 5% CO2 incubator.
5 million MDA-MB-231 cells/mice in 0.1 mL of 50% Matrigel (BD biosciences, LDEV free 256235)+50% D-PBS 1× (Gibco 14190-086) are injected by subcutaneous route on the upper back of 120 mice. Prior to implantation, mice are anesthetized by intra-peritoneal injection with a 0.1 mL/10 g dose of anaesthetic solution (18 mL NaCl, 0.9%+0.5 mL xylazine, +1.5 mL ketamine. […]
Body weight, and tumor growth is recorded twice a week during the course of treatment.
After 26 days the treatment is stopped, in each group half of the mice are euthanized for tissue collection, and the other half is kept for a further 7 days, during which period body weight and tumour sized are measured.
In sacrificed mice, blood and tumours are collected, analysed, and the effect of the test compounds is compared with controls (vehicle and paclitaxel).
The values were obtained using the following calculations
Relative Tumor Volume (RTV):
Tumor Growth Inhibition (TGI) TGI=1−T/C

Take `Cc1ccc(NC(=O)c2cccc(C(F)(F)F)c2)cc1-c1ccc2c([C@H](C)O)n[nH]c2n1` [Compound 55, N-{3-[3-((S)-1-Hydroxy-ethyl)-1H-pyrazolo[3,4-b]pyridin-6-yl]-4-methyl-phenyl}-3-trifluoromethyl-benzamide]: the “exposure compared with comparative Compound A” value in series [1] (even if Compound A is administered at a 10 fold higher dose) was “higher”. The compound further came in with an AUC in series [1] (day 7, 30 mg/kg p.o.) of 31000 ng·h/mL. Besides, the “fold higher exposure than the comparison compound A” value in series [1] (plasma exposure at day 7, both at 30 mg/kg p.o.) was > 24 fold. Besides, in the series with MDA-MB-231 cells (30 mg/kg p.o., QD, 26 days treatment, MDA-MB-231 xenograft), the tumour growth entry is “complete block of tumour growth; also recorded: blocks tumorous growth”. In addition, in the series with MDA-MB-231 cells (day 26, 30 mg/kg), the “RTV (Relative Tumor Volume)” value is 1.01, the “T/C (Tumour Vs Control)” value is listed as 0.14% and the “TGI (Tumor Growth Inhibition)” value is on record as 99.86%.
Take `Cc1ccc(NC(=O)c2cccc(C(F)(F)F)c2)cc1-c1cc(C)c2c(N)n[nH]c2n1` [Compound A, N-(3-(3-amino-4-methyl-1H-pyrazolo[3,4-b]pyridin-6-yl)-4-methylphenyl)-3-(trifluoromethyl)benzamide]: the exposure (AUC) turned out to be 1280 ng·h/mL in series [1] (day 7, 30 mg/kg p.o.); 4240 ng·h/mL in series [1] (day 7, 100 mg/kg p.o.); 7920 ng·h/mL in series [1] (day 7, 300 mg/kg p.o.). Further, in series [1] (plasma exposure at day 7, Compound A at 300 mg/kg p.o. (10 fold higher dosing)), the “fold less exposed than Compound 55” value was 3.9 fold. For the same compound, the “RTV (Relative Tumor Volume)” value with MDA-MB-231 cells (day 26, 30 mg/kg) amounted to 3.40; in the series on MDA-MB-231 cells (day 26, 100 mg/kg), 3.09; in the series with MDA-MB-231 cells (day 26, 300 mg/kg) it was 4.74. In addition, the “T/C (Tumour Vs Control)” value with MDA-MB-231 cells (day 26, 30 mg/kg) was 54.89%; in the series with MDA-MB-231 cells (day 26, 100 mg/kg), 47.80%; with MDA-MB-231 cells (day 26, 300 mg/kg) it was 85.40%. The “TGI (Tumor Growth Inhibition)” value is 45.11% in the series on MDA-MB-231 cells (day 26, 30 mg/kg); 52.20% in the series with MDA-MB-231 cells (day 26, 100 mg/kg); 14.60% in the series on MDA-MB-231 cells (day 26, 300 mg/kg). In the series with MDA-MB-231 cells (dosed at 30, 100 or 300 mg/kg, 26 days treatment, MDA-MB-231 xenograft), the anti-tumour effect result is “shows a plateau of its anti-tumour effect and is not able to achieve the same effect on inhibition of tumour growth”.
